{"source": "ChEMBL document CHEMBL5357011", "about": "“Chemical Catalysis Guides Structural Identification for the Major In Vivo Metabolite of the BET Inhibitor JQ1” (ACS Med Chem Lett, 2024)", "format_in_all_cases": "ADME, organism-based", "settings_in_all_cases": "in vivo", "key": {"[1]": {"assay": "AUC (0 to t) in male C57BL/6NJ mouse at 50 mg/kg, ip measured upto 24 hrs by UHPLC-ESI-Q-Orbitrap-MS analysis", "design": "time < 24 hrs, dose 50 mg/kg, route ip"}, "[2]": {"assay": "AUC (0 to t) in female C57BL/6NJ mouse at 50 mg/kg, ip measured upto 24 hrs by UHPLC-ESI-Q-Orbitrap-MS analysis", "design": "dose 50 mg/kg, time < 24 hrs, route ip"}, "[3]": {"assay": "Observed apparent oral clearance in male C57BL/6NJ mouse at 50 mg/kg, ip measured upto 24 hrs by UHPLC-ESI-Q-Orbitrap-MS analysis"}, "[4]": {"assay": "Observed apparent oral clearance in female C57BL/6NJ mouse at 50 mg/kg, ip measured upto 24 hrs by UHPLC-ESI-Q-Orbitrap-MS analysis"}}, "data": [{"smiles": "[2H]C([2H])([2H])c1sc2c(c1C)C(c1ccc(Cl)cc1)=N[C@@H](CC(=O)OC(C)(C)C)c1nnc(C)n1-2", "values": [{"measurement": "AUCt", "setting": "[1]", "value": 94.2, "unit": "µg/mL/h"}, {"measurement": "AUCt", "setting": "[2]", "value": 50.5, "unit": "µg/mL/h"}, {"measurement": "CL/F", "setting": "[3]", "value": "0.528 (mg)/(ug/ml)/hr"}]}, {"smiles": "Cc1sc2c(c1C)C(c1ccc(Cl)cc1)=N[C@@H](CC(=O)OC(C)(C)C)c1nnc(C)n1-2", "values": [{"measurement": "AUCt", "setting": "[1]", "value": 75.1, "unit": "µg/mL/h"}, {"measurement": "AUCt", "setting": "[2]", "value": 41.1, "unit": "µg/mL/h"}, {"measurement": "CL/F", "setting": "[3]", "value": "0.661 (mg)/(ug/ml)/hr"}, {"measurement": "CL/F", "setting": "[4]", "value": "1.22 (mg)/(ug/ml)/hr"}]}]}
